According to patent US10479807B2, “Silylated pyrimidine prodrugs and methods of their use” (priority 2014, dated 2019):
Read-outs that look alike come from different tables or passages of the source.

How the values were obtained:
[1] = system: L1210; assay: In vitro cytotoxicity, leukemia; format: cell-based; conditions: Mus musculus
[2] = system: mice; assay: Toxicity of formulated Compound XI in mice; format: in vivo; conditions: nanoemulsion, intravenously on three consecutive days, doses up to 60 mg/kg, observed at the end of one week
Experimental: Compound XI was successfully formulated in a nanoemulsion at a concentration of 3 mg/ml. The nanoemulsion has an oil phase consisting of an injectable oil and lecithin and an aqueous phase comprising a tonicity adjuster, a stabilizer and water. The emulsions are of oil-in-water type with the mean oil droplets less than 100 nm. Each vehicle is at neutral pH (5-7) and about isotonic. The toxicity of formulated Compound XI was tested in mice. Mice were injected intravenously on three consecutive days with Compound XI at doses of up to 60 mg/kg and observed at the end of one week.

[3] = trifluridine alone; cited from earlier work
[4] = Release of 5-azacytidine from prodrug by hydrolysis in PBS; format: physicochemical; conditions: PBS at room temperature (20° C.)
[5] = system: HCT-116; assay: In vitro cytotoxicity, colon; format: cell-based; conditions: Homo sapiens, HCT-116, read-out: In vitro cytotoxicity IC50, Colon HCT-116
[6] = system: MDA-MB-231; assay: In vitro cytotoxicity, breast; format: cell-based; conditions: Homo sapiens, MDA-MB-231, read-out: In vitro cytotoxicity IC50, Breast MDA-MB-231

Which IC50 ([1]; L1210 leukemia, read-out: In vitro cytotoxicity IC50, Leukemia L1210) does the source give for Nc1ncn([C@@H]2O[C@H](CO)[C@@H](O)[C@H]2O)c(=O)n1 [5-azacyctidine, 5-azacytidine, reference compound] here?
Its IC50 is 1700 to 2400 nM.

With C[Si](C)(C)OC[C@H]1O[C@@H](n2cnc(N)nc2=O)C(F)(F)C1O[Si](C)(C)C (stereo partly shown) [Compound XI, 2′,2′-Difluoro-5-azadeoxycytidine-trimethylsilyl] as the compound, how does the “Toxicity as measured by weight loss” value [2] read?
The value was “No evidence of toxicity”.

With O=c1[nH]c(=O)n([C@H]2C[C@H](O)[C@@H](CO)O2)cc1C(F)(F)F [Trifluridine, 5-trifluorothymidine] as the compound, how does the half-life [3] read?
Its half-life is 12 min.

For C[Si](C)(C)OC[C@H]1O[C@@H](n2cnc(N)nc2=O)[C@@H](O[Si](C)(C)C)C1O[Si](C)(C)C (stereo partly shown) [NUC025, 2′,3′,5′-Tri(trimethylsilyl)-5-azacytidine], which IC50 ([1]; L1210, read-out: In vitro cytotoxicity IC50, Leukemia L1210) is on record?
Its IC50 is 1180 nM.

And the “Active drug (5-azacytidine) recovered by hydrolysis” value [4]?
Its value is “approximately 80%”.

And the IC50 [5]?
The IC50 was 1080 nM.

What about the IC50 [6] of the same compound?
Its IC50 is 3280 nM.
